This passage reports Ki results from ChEMBL document CHEMBL5442175, “EUbOPEN Chemogenomics Library - PDSP Secondary Binding” (2024).

Broadly, the pKi is the negative decadic logarithm of the Ki, by convention in mol/L. Read a low pKi as a high Ki.

For assay [1], the target named is Sigma intracellular receptor 2 (Homo sapiens, UniProt Q5BJF2). The assay can be described thus: PDSP Secondary Binding target: TMEM97 - Compounds are tested at 10 uM concentration, plate are incubated at room temperature in the dark for 90 minutes. Reaction are stopped by vacuum filtration onto 0.3% polyethyleneimine soaked filter mats using Filtermate harvester. Scintillation cocktail is then melted onto microwave-dried filters on a hot plate and the radio activity is counted in Microbia counter.
Sigma intracellular receptor 2, sequence (Q5BJF2 whole entry): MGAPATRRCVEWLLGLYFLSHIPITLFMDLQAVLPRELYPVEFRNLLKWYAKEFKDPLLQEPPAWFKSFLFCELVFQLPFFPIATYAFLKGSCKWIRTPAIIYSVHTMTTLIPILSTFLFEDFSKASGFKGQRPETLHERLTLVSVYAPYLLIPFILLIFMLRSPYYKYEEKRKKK

The next assay has as its target Mu-type opioid receptor (Homo sapiens, UniProt P35372). The assay can be described thus: PDSP Secondary Binding target: OPRM1 - Compounds are tested at 10 uM concentration, plate are incubated at room temperature in the dark for 90 minutes. Reaction are stopped by vacuum filtration onto 0.3% polyethyleneimine soaked filter mats using Filtermate harvester. Scintillation cocktail is then melted onto microwave-dried filters on a hot plate and the radio activity is counted in Microbia counter.

Assay [2] deals with Sigma non-opioid intracellular receptor 1 (Homo sapiens, UniProt Q99720). The assay can be described thus: PDSP Secondary Binding target: SIGMAR1 - Compounds are tested at 10 uM concentration, plate are incubated at room temperature in the dark for 90 minutes. Reaction are stopped by vacuum filtration onto 0.3% polyethyleneimine soaked filter mats using Filtermate harvester. Scintillation cocktail is then melted onto microwave-dried filters on a hot plate and the radio activity is counted in Microbia counter.
Sigma non-opioid intracellular receptor 1, sequence (Q99720 whole entry): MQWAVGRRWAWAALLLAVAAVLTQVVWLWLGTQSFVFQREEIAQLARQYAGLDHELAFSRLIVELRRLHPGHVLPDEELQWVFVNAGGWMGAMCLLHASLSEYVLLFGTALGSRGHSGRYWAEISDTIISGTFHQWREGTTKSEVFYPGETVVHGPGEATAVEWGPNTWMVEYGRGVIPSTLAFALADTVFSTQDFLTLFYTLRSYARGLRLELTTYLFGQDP

The target in assay [3] is 5-hydroxytryptamine receptor 5A (Homo sapiens, UniProt P47898). The assay can be described thus: PDSP Secondary Binding target: HTR5A - Compounds are tested at 10 uM concentration, plate are incubated at room temperature in the dark for 90 minutes. Reaction are stopped by vacuum filtration onto 0.3% polyethyleneimine soaked filter mats using Filtermate harvester. Scintillation cocktail is then melted onto microwave-dried filters on a hot plate and the radio activity is counted in Microbia counter.
5-hydroxytryptamine receptor 5A, sequence (P47898 whole entry): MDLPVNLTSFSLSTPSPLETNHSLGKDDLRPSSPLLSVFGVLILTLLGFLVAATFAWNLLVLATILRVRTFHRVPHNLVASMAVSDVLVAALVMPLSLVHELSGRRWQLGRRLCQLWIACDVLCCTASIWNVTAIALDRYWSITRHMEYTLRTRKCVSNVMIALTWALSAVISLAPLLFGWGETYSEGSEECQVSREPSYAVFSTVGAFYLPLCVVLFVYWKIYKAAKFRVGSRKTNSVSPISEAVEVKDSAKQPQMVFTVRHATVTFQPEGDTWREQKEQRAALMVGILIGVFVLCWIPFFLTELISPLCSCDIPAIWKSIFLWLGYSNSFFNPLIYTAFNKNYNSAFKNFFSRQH

Assay [4] has as its target 5-hydroxytryptamine receptor 2B (Homo sapiens, UniProt P41595). The assay can be described thus: PDSP Secondary Binding target: HTR2B - Compounds are tested at 10 uM concentration, plate are incubated at room temperature in the dark for 90 minutes. Reaction are stopped by vacuum filtration onto 0.3% polyethyleneimine soaked filter mats using Filtermate harvester. Scintillation cocktail is then melted onto microwave-dried filters on a hot plate and the radio activity is counted in Microbia counter.

Assay [5] addresses T1, Alpha-2B adrenergic receptor (Homo sapiens, UniProt P18089).
T1 sequence (P18089 whole entry): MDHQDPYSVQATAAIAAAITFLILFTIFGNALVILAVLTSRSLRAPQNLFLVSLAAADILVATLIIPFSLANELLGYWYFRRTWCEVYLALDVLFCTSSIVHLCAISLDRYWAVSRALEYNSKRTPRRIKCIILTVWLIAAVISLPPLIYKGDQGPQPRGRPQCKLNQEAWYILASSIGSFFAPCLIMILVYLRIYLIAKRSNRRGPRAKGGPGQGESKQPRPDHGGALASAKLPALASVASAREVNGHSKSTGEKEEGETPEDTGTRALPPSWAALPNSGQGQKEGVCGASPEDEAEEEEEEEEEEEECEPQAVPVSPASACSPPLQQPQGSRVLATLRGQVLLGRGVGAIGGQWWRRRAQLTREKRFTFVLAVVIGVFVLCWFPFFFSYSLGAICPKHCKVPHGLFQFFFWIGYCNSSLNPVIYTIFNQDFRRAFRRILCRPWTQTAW
The assay can be described thus: PDSP Secondary Binding target: ADRA2B - Compounds are tested at 10 uM concentration, plate are incubated at room temperature in the dark for 90 minutes. Reaction are stopped by vacuum filtration onto 0.3% polyethyleneimine soaked filter mats using Filtermate harvester. Scintillation cocktail is then melted onto microwave-dried filters on a hot plate and the radio activity is counted in Microbia counter.

Assay [6] addresses T2, Alpha-1B adrenergic receptor (Homo sapiens, UniProt P35368).
T2 sequence (P35368 whole entry): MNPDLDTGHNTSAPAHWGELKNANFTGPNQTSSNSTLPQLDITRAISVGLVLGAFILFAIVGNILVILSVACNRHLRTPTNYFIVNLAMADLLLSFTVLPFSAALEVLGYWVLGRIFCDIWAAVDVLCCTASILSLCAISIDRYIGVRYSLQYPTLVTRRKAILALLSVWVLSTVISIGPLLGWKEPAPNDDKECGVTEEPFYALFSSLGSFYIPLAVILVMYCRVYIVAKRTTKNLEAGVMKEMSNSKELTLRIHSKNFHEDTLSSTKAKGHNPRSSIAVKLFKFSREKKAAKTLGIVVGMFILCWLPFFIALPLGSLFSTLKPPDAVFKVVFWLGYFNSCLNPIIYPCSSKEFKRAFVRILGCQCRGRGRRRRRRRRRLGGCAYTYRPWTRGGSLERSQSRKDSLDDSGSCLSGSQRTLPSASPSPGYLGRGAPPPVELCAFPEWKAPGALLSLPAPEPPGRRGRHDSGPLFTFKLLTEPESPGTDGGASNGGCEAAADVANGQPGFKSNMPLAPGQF
Put plainly: PDSP Secondary Binding target: ADRA1B - Compounds are tested at 10 uM concentration, plate are incubated at room temperature in the dark for 90 minutes. Reaction are stopped by vacuum filtration onto 0.3% polyethyleneimine soaked filter mats using Filtermate harvester. Scintillation cocktail is then melted onto microwave-dried filters on a hot plate and the radio activity is counted in Microbia counter.

The next assay addresses D(3) dopamine receptor (Homo sapiens, UniProt P35462). The assay can be described thus: PDSP Secondary Binding target: DRD3 - Compounds are tested at 10 uM concentration, plate are incubated at room temperature in the dark for 90 minutes. Reaction are stopped by vacuum filtration onto 0.3% polyethyleneimine soaked filter mats using Filtermate harvester. Scintillation cocktail is then melted onto microwave-dried filters on a hot plate and the radio activity is counted in Microbia counter.

A further assay addresses Histamine H1 receptor (Homo sapiens, UniProt P35367). The assay can be described thus: PDSP Secondary Binding target: HRH1 - Compounds are tested at 10 uM concentration, plate are incubated at room temperature in the dark for 90 minutes. Reaction are stopped by vacuum filtration onto 0.3% polyethyleneimine soaked filter mats using Filtermate harvester. Scintillation cocktail is then melted onto microwave-dried filters on a hot plate and the radio activity is counted in Microbia counter.

In assay [7] the target is Sodium-dependent noradrenaline transporter (Homo sapiens, UniProt P23975). Put plainly: PDSP Secondary Binding target: SLC6A2 - Compounds are tested at 10 uM concentration, plate are incubated at room temperature in the dark for 90 minutes. Reaction are stopped by vacuum filtration onto 0.3% polyethyleneimine soaked filter mats using Filtermate harvester. Scintillation cocktail is then melted onto microwave-dried filters on a hot plate and the radio activity is counted in Microbia counter.
Sodium-dependent noradrenaline transporter, sequence (P23975 whole entry): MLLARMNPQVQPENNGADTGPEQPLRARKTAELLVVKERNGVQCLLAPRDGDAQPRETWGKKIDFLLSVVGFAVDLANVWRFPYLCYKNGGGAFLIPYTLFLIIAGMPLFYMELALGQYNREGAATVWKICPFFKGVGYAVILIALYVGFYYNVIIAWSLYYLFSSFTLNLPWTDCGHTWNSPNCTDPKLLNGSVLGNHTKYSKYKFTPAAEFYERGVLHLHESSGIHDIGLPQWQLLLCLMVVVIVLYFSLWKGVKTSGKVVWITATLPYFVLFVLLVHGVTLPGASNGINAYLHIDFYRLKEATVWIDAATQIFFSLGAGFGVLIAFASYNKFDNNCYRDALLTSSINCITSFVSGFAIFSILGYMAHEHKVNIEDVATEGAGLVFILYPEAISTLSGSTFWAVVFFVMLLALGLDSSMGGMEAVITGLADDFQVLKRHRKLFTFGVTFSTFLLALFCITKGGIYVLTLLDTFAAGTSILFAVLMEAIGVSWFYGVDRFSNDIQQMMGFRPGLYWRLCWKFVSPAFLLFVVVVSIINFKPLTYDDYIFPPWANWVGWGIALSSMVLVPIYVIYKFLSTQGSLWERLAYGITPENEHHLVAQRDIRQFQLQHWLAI

Assay [8] concerns the target 5-hydroxytryptamine receptor 6 (Homo sapiens, UniProt P50406). The assay can be described thus: PDSP Secondary Binding target: HTR6 - Compounds are tested at 10 uM concentration, plate are incubated at room temperature in the dark for 90 minutes. Reaction are stopped by vacuum filtration onto 0.3% polyethyleneimine soaked filter mats using Filtermate harvester. Scintillation cocktail is then melted onto microwave-dried filters on a hot plate and the radio activity is counted in Microbia counter.

Each structure is given as a SMILES string. pKi: −log10 of the molar value. Structures can show the parent of a compound that is named as a salt. Some results are limits rather than exact numbers.

5-hydroxytryptamine receptor 2B, sequence (P41595 whole entry): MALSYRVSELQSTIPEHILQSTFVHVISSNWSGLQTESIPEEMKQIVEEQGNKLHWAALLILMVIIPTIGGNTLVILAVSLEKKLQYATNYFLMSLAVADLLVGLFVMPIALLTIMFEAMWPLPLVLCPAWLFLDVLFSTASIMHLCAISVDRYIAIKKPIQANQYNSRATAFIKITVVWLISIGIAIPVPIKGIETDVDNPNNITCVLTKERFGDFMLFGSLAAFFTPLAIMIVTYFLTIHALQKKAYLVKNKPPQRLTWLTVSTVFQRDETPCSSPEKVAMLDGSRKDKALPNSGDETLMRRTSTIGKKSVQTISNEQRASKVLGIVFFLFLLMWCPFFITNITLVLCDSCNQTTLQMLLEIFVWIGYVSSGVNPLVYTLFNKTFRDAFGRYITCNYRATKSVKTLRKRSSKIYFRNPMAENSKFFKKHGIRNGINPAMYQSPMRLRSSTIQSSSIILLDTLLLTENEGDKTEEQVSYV
Mu-type opioid receptor, sequence (P35372 whole entry): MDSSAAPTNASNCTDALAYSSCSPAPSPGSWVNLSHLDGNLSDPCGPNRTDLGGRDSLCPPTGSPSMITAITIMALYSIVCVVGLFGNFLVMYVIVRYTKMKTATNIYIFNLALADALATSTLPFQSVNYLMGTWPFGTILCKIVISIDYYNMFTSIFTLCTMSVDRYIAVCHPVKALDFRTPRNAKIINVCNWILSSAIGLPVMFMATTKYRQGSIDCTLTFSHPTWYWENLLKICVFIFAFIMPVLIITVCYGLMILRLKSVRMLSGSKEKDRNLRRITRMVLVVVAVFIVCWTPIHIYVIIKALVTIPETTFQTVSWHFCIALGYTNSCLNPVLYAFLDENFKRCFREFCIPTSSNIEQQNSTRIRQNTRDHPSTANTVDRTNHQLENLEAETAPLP
D(3) dopamine receptor, sequence (P35462 whole entry): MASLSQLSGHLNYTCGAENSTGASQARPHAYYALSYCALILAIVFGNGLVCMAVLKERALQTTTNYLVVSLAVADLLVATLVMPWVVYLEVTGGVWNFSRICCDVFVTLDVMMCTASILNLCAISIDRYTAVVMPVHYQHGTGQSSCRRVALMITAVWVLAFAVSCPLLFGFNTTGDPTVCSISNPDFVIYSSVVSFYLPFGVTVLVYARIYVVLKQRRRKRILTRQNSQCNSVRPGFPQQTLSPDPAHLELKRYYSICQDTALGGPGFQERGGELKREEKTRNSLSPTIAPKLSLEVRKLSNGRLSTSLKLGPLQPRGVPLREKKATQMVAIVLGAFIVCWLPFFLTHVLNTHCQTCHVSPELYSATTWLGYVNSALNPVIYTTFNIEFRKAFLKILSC
5-hydroxytryptamine receptor 6, sequence (P50406 whole entry): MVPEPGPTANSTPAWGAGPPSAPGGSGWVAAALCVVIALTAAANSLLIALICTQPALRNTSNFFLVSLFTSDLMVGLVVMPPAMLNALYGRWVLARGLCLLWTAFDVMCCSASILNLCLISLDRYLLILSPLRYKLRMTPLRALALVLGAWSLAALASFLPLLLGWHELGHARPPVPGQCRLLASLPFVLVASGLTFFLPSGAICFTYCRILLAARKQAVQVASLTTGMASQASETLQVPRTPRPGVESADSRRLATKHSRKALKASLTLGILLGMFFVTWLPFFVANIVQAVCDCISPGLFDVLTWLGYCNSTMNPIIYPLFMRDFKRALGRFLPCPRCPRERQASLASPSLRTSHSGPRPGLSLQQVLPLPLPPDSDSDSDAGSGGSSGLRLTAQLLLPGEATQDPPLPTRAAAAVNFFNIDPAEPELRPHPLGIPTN
Histamine H1 receptor, sequence (P35367 whole entry): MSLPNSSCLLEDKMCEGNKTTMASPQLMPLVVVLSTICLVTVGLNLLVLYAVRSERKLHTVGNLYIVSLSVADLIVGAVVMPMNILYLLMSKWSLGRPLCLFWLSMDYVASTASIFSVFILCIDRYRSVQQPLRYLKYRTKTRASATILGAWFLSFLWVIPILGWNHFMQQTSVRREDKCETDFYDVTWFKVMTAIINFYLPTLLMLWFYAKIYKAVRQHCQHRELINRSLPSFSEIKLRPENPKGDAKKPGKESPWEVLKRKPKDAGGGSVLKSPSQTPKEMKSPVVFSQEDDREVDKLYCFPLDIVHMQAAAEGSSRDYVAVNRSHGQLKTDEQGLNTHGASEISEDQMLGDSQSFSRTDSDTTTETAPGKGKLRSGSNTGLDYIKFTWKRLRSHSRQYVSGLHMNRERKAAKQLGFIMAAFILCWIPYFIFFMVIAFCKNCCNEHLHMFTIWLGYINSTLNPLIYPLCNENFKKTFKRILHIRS

Take `CCc1ccc(OCc2ccccc2C(=O)Nc2ccc3nc(C)cc(N)c3c2)cc1`: the pKi in assay [1] was 6.15; at Mu-type opioid receptor it was 6.31; in [2] it was 5.64; in assay [3], 5.61; in assay [4] it was 6.64; in assay [5] it was 5.50. In assay [6], the negative-log Ki (pKi) was 5.45.

`Cc1cn2cc(CC(=O)N3CCC4(CC3)CN(Cc3ccc(-n5nccn5)cc3Cl)C4)nc2s1`: the values for the pKi (in assay [2]; on D(3) dopamine receptor) were 6.28 and 6.32, respectively.

With `Clc1cccc(COc2cncc(N3CCNCC3)n2)c1`, the negative-log Ki (pKi) in assay [2] is 7.49; at D(3) dopamine receptor it was 6.55; in assay [4] it was 8.00; on Histamine H1 receptor, 5.84.

With `CCc1cc2c(cc1CC)CC(NC[C@H](O)c1ccc(O)c3[nH]c(=O)ccc13)C2` [INDACATEROL], the negative-log Ki (pKi) was 6.97 in assay [1]; 6.25 in [7]; below 5.00 in [8]; 5.87 at D(3) dopamine receptor; 5.36 in assay [6].

As for `Cc1c(P(=S)(c2ccccc2)c2ccccc2)n2ccccc2[n+]1C/C=C/c1ccccc1`, the negative logarithm of the Ki (pKi) in assay [1] is 6.15; at Mu-type opioid receptor it was 6.99; in [7], 6.02; in assay [2], 6.09; on Histamine H1 receptor, below 5.00.

Consider `NCCc1cn(S(=O)(=O)c2c(Cl)nc3sccn23)c2ccccc12`, for which the pKi was 6.17 in assay [1]; 5.90 in assay [7]; 5.88 in assay [2]; 5.31 in assay [6]; 5.78 at Histamine H1 receptor.

For `Cc1nn(C)c(C)c1-c1cccc2c1CC[C@H](N(C)C)C2`, the pKi in [1] was 5.95; in [2], 6.80; in [3], 7.12; in assay [5] it was 6.97.

`Cc1cc(C)cc(-c2cnc3cc(Cl)c(-c4cccc(O)c4)cc3c2OCCCN)c1`: the pKi in [1] is 5.28; on Mu-type opioid receptor, 5.25; in assay [7], 5.24; in assay [2], below 5.00; in [3] it was 6.07; on D(3) dopamine receptor it was 6.38.

Turning to `C[C@H](Cc1cc2c(c(C(N)=O)c1)N(CCCO)CC2)NCCOc1ccccc1OCC(F)(F)F` [SILODOSIN], the pKi on D(3) dopamine receptor is 7.15; in assay [4] it was 5.68; in assay [5] it was 6.10; in assay [6], 6.71; at Histamine H1 receptor, 5.45.

Consider `COc1ccc(NS(=O)(=O)c2sc3ccc(Cl)cc3c2C)cc1N1CCNCC1`, for which the negative-log Ki (pKi) was 6.18 in assay [1]; 5.45 on Mu-type opioid receptor; 5.25 in assay [7]; 6.22 in [2]; 5.72 in [3]; 6.09 in assay [4]. In assay [6], the pKi was 5.57.

As for `CN1CCC(=C2c3ccccc3CC(=O)c3sccc32)CC1` [KETOTIFEN FUMARATE], the pKi in assay [1] was 6.44; in assay [8], 6.08; at D(3) dopamine receptor, 6.14.

As to `C[C@@H](NCCCc1cccc(C(F)(F)F)c1)c1cccc2ccccc12` [CINACALCET HYDROCHLORIDE], the pKi in assay [1] was 6.41; on Mu-type opioid receptor it was 5.89; in assay [7] it was 5.84; in assay [3] it was 6.01; in [8], 5.74; at D(3) dopamine receptor, 6.41. The negative-log Ki (pKi) is 7.40 in assay [4] and 5.54 in assay [6].

On to `CCCCN1CCC(COC(=O)c2cc(Cl)c(N)c3c2OCCO3)CC1`, for which the negative-log Ki (pKi) in assay [1] is 7.19; in assay [2], 7.50; at D(3) dopamine receptor it was 6.17; in [4], 7.28; on Histamine H1 receptor, 5.33.

With `CN1C[C@H](C(=O)N[C@]2(C)O[C@@]3(O)[C@@H]4CCCN4C(=O)[C@H](Cc4ccccc4)N3C2=O)C[C@@H]2c3cccc4[nH]cc(c34)C[C@H]21` [DIHYDROERGOTAMINE MESYLATE], the negative logarithm of the Ki (pKi) in assay [1] was 5.55; on Mu-type opioid receptor, 6.81; in [2] it was 6.22; in assay [3], 7.50; in assay [8], 6.65; at D(3) dopamine receptor it was 7.47. Further, the pKi in assay [6] was 6.93.

Turning to `OCc1cc(C(O)CNCCCCCCOCCCCc2ccccc2)ccc1O` (stereo not given) [SALMETEROL], the pKi is 7.49 in assay [1], 6.42 in assay [7], 5.90 at D(3) dopamine receptor and 5.71 in [5].

As for `COc1cc(-n2cnc3cc(-c4ccc(Cl)cc4)sc3c2=O)ccc1OCCN1CCCC1`, the negative-log Ki (pKi) in assay [1] is 6.73; in assay [2], 7.92; in assay [3], 6.25; on D(3) dopamine receptor, 6.11; in assay [4], 6.28.

As to `Cc1nc(-c2ccc(-c3ccc(C(=O)N4CCc5cc6c(cc54)C4(CCN(C)CC4)CO6)cc3)c(C)c2)no1` [SB-224289], the negative-log Ki (pKi) in [1] is 6.30; in [7], 5.76; in assay [2] it was 5.36; in assay [5], 5.66.

As to `CN1C2CCC1CC(OC(c1ccc(F)cc1)c1ccc(F)cc1)C2` (stereo not given), the pKi in [7] was 6.11; in [2], 7.01; in assay [8], 6.43; on D(3) dopamine receptor it was 6.94; in [6] it was 6.58.

Turning to `COc1ccc(NC(=O)c2ccc(-c3ccc(-c4noc(C)n4)cc3C)cc2)cc1OCCN(C)C`, the pKi in [1] is 6.16; in assay [7], 6.18; in [2], 5.51; in assay [3] it was 5.93; in [5], 6.18.

For `CCOC(=O)c1c(C)[nH]c2ccc3c(c12)CN1CCc2cc(OC)ccc2C1O3` (stereo not given), the pKi at Mu-type opioid receptor was 5.95; in assay [7] it was 5.55; in [4], 6.30; in assay [5] it was 5.49.

Regarding `NC[C@@H]1O[C@H](C23CC4CC(CC(C4)C2)C3)Cc2c1ccc(O)c2O`, the negative-log Ki (pKi) in [1] was 6.12; in assay [7] it was 6.02; at D(3) dopamine receptor, 6.26; in [5], 6.05; in assay [6], 5.38.
